Source: PubChem BioAssay AID463203 (Broad Institute, 2010)
Calls of active or inactive are those of the source.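 Rule for the calls: active = more than half of replicate measurements showing over 20% loss of kinase signal relative to plate controls; inconclusive = some but at most half of replicates over 20% loss; inactive = no replicate over 20% signal loss.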

target: Glycogen synthase kinase-3 alpha (Homo sapiens) (UniProt P49840); experiment: concentration-response blocking of human GSK3A – biochemical, luminescence, cell-free homogeneous, retest, dose response (AID 463203); conditions: GSK-3 alpha enzyme, ADP-Glo luminescence, 60 min
Sequence (P49840 whole entry, looked up): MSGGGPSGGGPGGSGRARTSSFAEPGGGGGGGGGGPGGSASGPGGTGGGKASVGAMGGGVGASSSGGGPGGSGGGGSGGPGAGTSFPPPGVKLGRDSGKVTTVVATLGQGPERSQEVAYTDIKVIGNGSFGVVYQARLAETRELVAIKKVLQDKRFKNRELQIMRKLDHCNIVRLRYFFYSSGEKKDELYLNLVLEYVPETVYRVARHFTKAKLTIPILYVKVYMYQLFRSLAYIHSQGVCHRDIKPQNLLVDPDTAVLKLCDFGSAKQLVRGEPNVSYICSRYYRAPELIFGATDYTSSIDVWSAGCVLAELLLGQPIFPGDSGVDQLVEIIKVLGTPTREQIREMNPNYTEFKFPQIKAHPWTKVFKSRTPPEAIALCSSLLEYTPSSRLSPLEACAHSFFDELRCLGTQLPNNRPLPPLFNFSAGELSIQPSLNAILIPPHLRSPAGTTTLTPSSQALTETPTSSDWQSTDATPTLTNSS

Compound | AC50
Cc1cccc(C)c1OCC(=O)Nc1ccc2c(c1)C(=O)NC2=O | 22.5 µM
C#CCOCCOCCOCCNc1nc(N2CCN(C(=O)CCCCCCCCCCNC(=O)[C@H](CCCCN)n3cc(C)nn3)CC2)nc(N2CCN(C(=O)CCCCCCCCCCNC(=O)[C@@H]([C@H](C)CC)n3cc(CCCCCN)nn3)CC2)n1 | > 30 µM (inactive)
Cc1cccc(C(=O)Nc2cccc(-c3cnc4ccccc4n3)c2)c1 | > 30 µM (inactive)
O=C(Nc1ccccc1)c1ccc(CSc2ncccn2)cc1 | > 30 µM (inactive)
CC(C)c1[nH]nc2c1C(c1ccco1)C(C#N)=C(N)O2 (stereo not drawn) | > 30 µM (inactive)
COc1ccccc1NC(=O)Nc1ccccc1Br | > 30 µM (inactive)
NC(=O)c1oc2ccccc2c1NC(=O)c1ccc(F)cc1 | > 30 µM (inactive)
Oc1[nH]c2ccc(Br)cc2c1N=Nc1nn[nH]n1 | 23.3 µM
O=C(O)c1cccc2c1C(=O)c1ccccc1C2=O | > 30 µM (inactive)
N#Cc1c2c(c(NCc3ccco3)n3c1nc1ccccc13)CCC2 | > 30 µM (inactive)
CC(=O)c1cccc(NC(=O)c2cc(-n3cnnc3)ccc2Cl)c1 | > 30 µM (inactive)
COc1ccc(/C=C/c2nc3ccccc3n2C)cc1 | 11.4 µM
Cn1c(SCc2nc(-c3ccc(Cl)cc3)no2)nnc1-c1ccccc1 | > 30 µM (inactive)
CCN1CCN(c2c(Cl)cccc2NC(=O)c2cccs2)CC1 | > 30 µM (inactive)
Cc1cc2nc(-c3cccnc3SCC(=O)NCc3ccco3)[nH]c2cc1C | > 30 µM (inactive)
Nc1nonc1-n1nnc(C(=O)N/N=C/c2ccc(Cl)cc2Cl)c1CN1CCOCC1 | > 30 µM (inactive)
NC(=O)c1ccsc1NC(=O)C1CC1 | > 30 µM (inactive)
CC(C)CCNc1nc(N)c([N+](=O)[O-])c(N2CCCCCC2)n1 | 8.86 µM
C/C(=N\NC(=O)CSc1nc(C)[nH]c1[N+](=O)[O-])c1ccc(F)cc1 | > 30 µM (inactive)
COc1ccc(-c2cc(=O)c3ccccc3s2)cc1 | > 30 µM (inactive)
NC(=O)c1sc2nc3c(c(-c4ccco4)c2c1N)CCCC3 | 13.6 µM
COc1ccc(/C=N/NC(=O)CSCc2ccc([N+](=O)[O-])cc2)cc1OC | > 30 µM (inactive)
CC1(C)CC(=O)C=C(c2cccc(O)c2)C1 | > 30 µM (inactive)
c1ccc(-c2csc3ncnc(NCc4ccccn4)c23)cc1 | 24.5 µM
O=C(CSc1ncnc2sc3c(c12)CCC3)NCC1CCCO1 (stereo not drawn) | > 30 µM (inactive)
CC(=O)Oc1ccc2ccc(=O)oc2c1 | > 30 µM (inactive)
CN(C)S(=O)(=O)c1cccc(NC(=S)NN=C(Cc2ccccc2)Cc2ccccc2)c1 | > 30 µM (inactive)

Compound | AC50
CCOc1ccc2[nH]cc(S(=O)(=O)c3ccc(C)cc3)c(=O)c2c1 | > 30 µM (inactive)
Clc1ccc(CSc2nncn2-c2ccc3c(c2)OCCO3)cc1 | > 30 µM (inactive)
Oc1ccc2oc3c(c2c1/C=N/n1cnnc1)CCCC3 | > 30 µM (inactive)
CC1(C)CC(=O)C(C(C2=C(O)CC(C)(C)CC2=O)c2ccco2)C(=O)C1 (stereo not drawn) | > 30 µM (inactive)
COc1ccc(C2C3(C#N)C(N)=NC(OC)(OC)C23C#N)cc1 (stereo not drawn) | > 30 µM (inactive)
COc1cc(O)cc2c1C(=O)OC(C)CCCC(=O)CCC/C=C\2 (stereo not drawn) | > 30 µM (inactive)
CCOC(=O)c1sc(NC(=O)CSc2ncn[nH]2)c(C#N)c1C | > 30 µM (inactive)
COc1cc(SC)ccc1C(=O)Nc1nc(C)cc(C)n1 | > 30 µM (inactive)
Brc1ccccc1C1=Nn2c(nnc2-c2ccco2)SC1 | 17.5 µM
O=C(Nc1cccc(Cl)c1N1CCOCC1)c1ccc(Br)o1 | > 30 µM (inactive)
CCOC(=O)c1nc2sc3c(c2c(=O)[nH]1)CCC(C)C3 (stereo not drawn) | > 30 µM (inactive)
CCc1ccccc1NC(=O)CSc1nnc([C@@H](N)Cc2c[nH]c3ccccc23)o1 | > 30 µM (inactive)
Cc1ccc(C(=O)O/N=C(\N)c2cccc([N+](=O)[O-])c2)cc1 | > 30 µM (inactive)
COc1ccc(NC(=O)CSc2nnc(-c3cccc(O)c3)o2)cc1 | > 30 µM (inactive)
CC1CCCCC12NC(=O)N(CC(=O)Nc1sc3c(c1C(N)=O)CCC3)C2=O (stereo not drawn) | 11.4 µM
N#CC1=C(SCc2ccccc2)NC(=O)CC1c1ccco1 (stereo not drawn) | > 30 µM (inactive)
CC1(C)CC(=O)C2=C(C1)Nc1ccccc1[S@]2=O | > 30 µM (inactive)
Oc1ccc(-c2nc3ncccn3c2Nc2ccc3c(c2)OCCO3)cc1 | > 30 µM (inactive)
COc1ccccc1Nc1nc(Cl)c(C=O)s1 | > 30 µM (inactive)
COc1ccc(-c2nsc3c(N4CCCCC4C)ncnc23)cc1 (stereo not drawn) | > 30 µM (inactive)
CC1CCc2c(sc(NC(=O)CCCn3cnc([N+](=O)[O-])n3)c2C(N)=O)C1 (stereo not drawn) | > 30 µM (inactive)
COC(=O)c1c(C(C)=O)cnc2ccc(Br)cc12 | > 30 µM (inactive)
COCCCNc1ncnc2nc[nH]c12 | > 30 µM (inactive)
Cc1csc(NC(=O)C2CCCN2C(=O)OCC(C)C)n1 (stereo not drawn) | > 30 µM (inactive)
CC1(C)Cc2cccc(C(=O)Nc3ccncc3)c2O1 | 5.8 µM
Nn1c(-c2ccc(O)cc2)nnc1-c1ccc(O)cc1 | > 30 µM (inactive)
